The text below walks through data of patent US7557066B2, “Use of sulfonylureas” (Bayer CropScience AG, priority 2004, dated 2009).

The subject of series [1] is monocotyledonous and dicotyledonous weed plants. Briefly: Pre-emergence effect on weeds (greenhouse, visual scoring). It is filed as in vivo, weed grasses and broad-leaved weeds. The conditions noted are these: 100 g or less of active substance per hectare; against Sinapsis alba, Chrysanthemum segetum, Avena sativa, Stellaria media, Echinochloa crus-galli, Lolium multiflorum, Setaria viridis, Abutilon theophrasti, Amaranthus retroflexus, Brachiaria plantaginea, Solanum nigrum, Euphorbia heterophylla, Sorghum halepense, Panicum miliaceum; scored after 3 to 4 weeks. The text has this:
Seeds or rhizome pieces of monocotyledonous and dicotyledonous weed plants were placed in sandy loam soil in cardboard pots and covered with soil. The compounds of the formula (I) or their salts, formulated in the form of wettable powders or emulsion concentrates, were then applied to the surface of the soil cover in the form of aqueous suspensions or emulsions at an application rate of 600 to 800 l of water/ha (converted) in various dosages.
After the treatment, the pots were placed in a greenhouse and kept under good growth conditions for the weeds. After the test plants had emerged, the damage to the plants or the negative effect on the emergence was scored visually after a test period of 3 to 4 weeks by comparison with untreated controls. As shown by the test results, the compounds tested have good herbicidal pre-emergence activity against a broad spectrum of weed grasses and broad-leaved weeds. […] Post-Emergence Effect on Weeds

In another series the test system is soybeans (Glycine max.). Briefly: Crop plant compatibility (greenhouse, visual scoring). It counts as in vivo. The conditions noted are these: for damage to crops of leguminous plants, such as soybeans: pre-emergence or post-emergence method, various dosages, visual scoring four to five weeks after application. On the procedure:
In further greenhouse experiments, seeds of a substantial number of crop plants and weeds were placed into sandy loam soil and covered with soil. Some of the pots were treated immediately as described under Section 1, and the remaining pots were placed in a greenhouse until the plants had developed two to three true leaves and then sprayed with various dosages of the compounds of the formula (I) or salts thereof, as described in Section 2.

In series [2] the test system is monocotyledonous and dicotyledonous weeds. Briefly: Post-emergence effect on weeds (greenhouse, visual scoring). It counts as in vivo, weed grasses and broad-leaved weeds. The note with it: 100 g or less of active substance per hectare; against Sinapsis alba, Echinochloa crus-galli, Lolium multiflorum, Chrysanthemum segetum, Setaria viridis, Abutilon theophrasti, Amaranthus retroflexus, Panicum miliaceum, Brachiaria plantaginea, Solanum nigrum, Euphorbia heterophylla, Sorghum halepense, Avena sativa; scored after about 3 to 4 weeks. On the procedure: (§1) Seeds or rhizome pieces of monocotyledonous and dicotyledonous weeds were placed in a sandy loam soil in plastic pots, covered with soil and cultivated in a greenhouse under good growth conditions. Three weeks after sowing, the test plants were treated at the three-leaf stage. The compounds of the formula (I) or their salts, formulated as wettable powders or as emulsion concentrates, were sprayed, at various dosages, onto the green parts of the plants at an application rate of 600 to 800 l of water/ha (converted). After the test plants had remained in the greenhouse for about 3 to 4 weeks under optimum growth conditions, the effect of the preparations was scored visually by comparison with untreated controls. The tested compounds also have good herbicidal post-emergence activity against a broad spectrum of economically important weed grasses and broad-leaved weeds. […] Crop Plant Compatibility

A further series relates to Setaria viridis. Briefly: Post-emergence effect on weeds. It is filed as in vivo. The note with it: 30 g of active substance per hectare. As to the method:
as §1

The subject of the next series is Amaranthus retroflexus. As to the kind of experiment: Post-emergence effect on weeds. It counts as in vivo. The note with it: 30 g of active substance per hectare. As to the method:
as §1

A further series concerns Solanum nigrum. Briefly: Post-emergence effect on weeds. It counts as in vivo. The conditions noted are these: 30 g of active substance per hectare. On the procedure: as §1
The test system of the next series is Brachiaria plantaginea. As to the kind of experiment: Post-emergence effect on weeds. It counts as in vivo. The note with it: 30 g of active substance per hectare. On the procedure: as §1
In a further series the test system is Echinochloa crus-galli. Briefly: Post-emergence effect on weeds. It is filed as in vivo. The conditions noted are these: 30 g of active substance per hectare. As to the method: as §1
The subject of the next series is CIRAR. As to the kind of experiment: Inhibition of revegetation of perennial plants. It is filed as in vivo. The conditions noted are these: 600 g of a.i./ha; cut four weeks after application, scored after a further four weeks; 100% = total inhibition. The text has this:
(§2) […] Four weeks after the application, the above-ground parts of the plants were cut off. After a further four weeks, the inhibition of revegetation was scored in percent of the control, 100% corresponding to a total inhibition of revegetation.

A further series concerns LOLPE. Briefly: Inhibition of revegetation of perennial plants. It counts as in vivo. The conditions noted are these: 600 g of a.i./ha; cut four weeks after application, scored after a further four weeks; 100% = total inhibition.
From the text: as §2

For the compound `COc1cc(OC)nc(NC(=O)[N-]S(=O)(=O)c2ncccc2C2=NOCCO2)n1.[Na+]` [I-12], in [1], the “herbicidal action in the pre-emergence method” value is given as “very good herbicidal action”. Further, in the series on soybeans (Glycine max.), the “damage to crops of leguminous plants, such as soybeans” value (“damage to crops of leguminous plants” below) is reported as “did not damage”. In series [2], the “herbicidal action by the post-emergence method” value is reported as “very good herbicidal action”.

As to `COc1cc(C)nc(NC(=O)[N-]S(=O)(=O)c2ncccc2C2=NOCCO2)n1.[Na+]` [I-3], the “herbicidal action in the pre-emergence method” value in [1] was “very good herbicidal action”. The “damage to crops of leguminous plants” value with soybeans (Glycine max.) is given as “did not damage”. In addition, the “herbicidal action by the post-emergence method” value in series [2] is given as “very good herbicidal action”.

With `COc1cc(OC)nc(NC(=O)NS(=O)(=O)c2ncccc2C2=NOCCO2)n1` [I-11], the “herbicidal action in the pre-emergence method” value in series [1] is listed as “very good herbicidal action”. The “damage to crops of leguminous plants” value in the series on soybeans (Glycine max.) is “did not damage”. The “herbicidal action by the post-emergence method” value in series [2] is reported as “very good herbicidal action”.

For `COc1nc(NC(=O)NS(=O)(=O)c2ncccc2C2=NOCCO2)nc(OC)n1` [I-51], in [1], the “herbicidal action in the pre-emergence method” value is given as “very good herbicidal action”. Moreover, the “damage to crops of leguminous plants” value with soybeans (Glycine max.) was “did not damage”. The “herbicidal action by the post-emergence method” value in series [2] is “very good herbicidal action”.

As to `Cc1cc(Cl)nc(NC(=O)[N-]S(=O)(=O)c2ncccc2C2=NOCCO2)n1.[Na+]` [I-30], the “herbicidal action in the pre-emergence method” value in series [1] is on record as “very good herbicidal action”. Also, the “damage to crops of leguminous plants” value with soybeans (Glycine max.) is “did not damage”. Besides, the “herbicidal action by the post-emergence method” value in [2] is reported as “very good herbicidal action”.

On to `CCOc1cc(OC)nc(NC(=O)NS(=O)(=O)c2ncccc2C2=NOCCO2)n1` [I-1], for which the “herbicidal action in the pre-emergence method” value in series [1] was “very good herbicidal action”. The “damage to crops of leguminous plants” value in the series on soybeans (Glycine max.) is reported as “did not damage”. The “herbicidal action by the post-emergence method” value in [2] is “very good herbicidal action”.

With `Cc1cc(C)nc(NC(=O)NS(=O)(=O)c2ncccc2C2=NOCCO2)n1` [I-23], in [1], the “herbicidal action in the pre-emergence method” value is on record as “very good herbicidal action”. Also, the “damage to crops of leguminous plants” value in the series on soybeans (Glycine max.) is listed as “did not damage”. For the same compound, in series [2], the “herbicidal action by the post-emergence method” value is on record as “very good herbicidal action”.

Take `COc1cc(Cl)nc(NC(=O)[N-]S(=O)(=O)c2ncccc2C2=NOCCO2)n1.[Na+]` [I-10]: the “herbicidal action in the pre-emergence method” value in series [1] is recorded as “very good herbicidal action”. For the same compound, in the series with soybeans (Glycine max.), the “damage to crops of leguminous plants” value is “did not damage”. In addition, in series [2], the “herbicidal action by the post-emergence method” value is on record as “very good herbicidal action”.

Consider `COc1nc(NC(=O)[N-]S(=O)(=O)c2ncccc2C2=NOCCO2)nc(OC)n1.[Na+]` [I-52], for which, in [1], the “herbicidal action in the pre-emergence method” value is “very good herbicidal action”. Also, the “damage to crops of leguminous plants” value in the series on soybeans (Glycine max.) was “did not damage”. In addition, in series [2], the “herbicidal action by the post-emergence method” value is “very good herbicidal action”.

For `O=C([N-]S(=O)(=O)c1ncccc1C1=NOCCO1)Nc1nc(Cl)cc(OCC(F)(F)F)n1.[Na+]` [I-145], the “herbicidal action in the pre-emergence method” value in [1] was “very good herbicidal action”. The “damage to crops of leguminous plants” value in the series on soybeans (Glycine max.) is “did not damage”. Moreover, the “herbicidal action by the post-emergence method” value in series [2] is recorded as “very good herbicidal action”.

With `COc1cc(Cl)nc(NC(=O)NS(=O)(=O)c2ncccc2C2=NOCCO2)n1` [I-9], the “herbicidal action in the pre-emergence method” value in [1] is listed as “very good herbicidal action”. For the same compound, in the series on Setaria viridis, the “herbicidal activity against Setaria viridis” value turned out to be 100%. Moreover, the “herbicidal activity against Amaranthus retroflexus” value in the series with Amaranthus retroflexus was found to be 93%. Besides, the “herbicidal activity against Solarium nigrum” value in the series on Solanum nigrum came to 100%. The “herbicidal activity against Brachiaria plantaginea” value in the series with Brachiaria plantaginea is given as 100%. Also, in the series on Echinochloa crus-galli, the “herbicidal activity against Echinochloa crus-galli” value is recorded as 100%. Moreover, in the series on soybeans (Glycine max.) (8 g of active substance per hectare), the “damage to soybeans (Glycine max.)” value amounted to 0%. In the series with soybeans (Glycine max.), the “damage to crops of leguminous plants” value was “did not damage”. The “herbicidal action by the post-emergence method” value in series [2] was “very good herbicidal action”.

Regarding `CCOc1cc(Cl)nc(NC(=O)NS(=O)(=O)c2ncccc2C2=NOCCO2)n1` [I-21], the “herbicidal action in the pre-emergence method” value in series [1] is “very good herbicidal action”. For the same compound, the “damage to crops of leguminous plants” value in the series on soybeans (Glycine max.) was “did not damage”. For the same compound, in series [2], the “herbicidal action by the post-emergence method” value was “very good herbicidal action”.

On to `O=C(O)CNCP(=O)(O)O` [Glyphosate], for which the “inhibition of revegetation, CIRAR” value with CIRAR is recorded as 25%. In addition, the “inhibition of revegetation, LOLPE” value with LOLPE came out at 35%.

`O=C(Nc1nc(Cl)cc(OCC(F)(F)F)n1)NS(=O)(=O)c1ncccc1C1=NOCCO1` [I-143]: the “herbicidal action in the pre-emergence method” value in [1] is recorded as “very good herbicidal action”. In the series on soybeans (Glycine max.), the “damage to crops of leguminous plants” value was “did not damage”. Besides, in series [2], the “herbicidal action by the post-emergence method” value is reported as “very good herbicidal action”.

For the compound `CCOc1nc(Cl)nc(NC(=O)[N-]S(=O)(=O)c2ncccc2C2=NOCCO2)n1.[Na+]` [I-70], the “herbicidal action in the pre-emergence method” value in series [1] is “very good herbicidal action”. Further, the “damage to crops of leguminous plants” value with soybeans (Glycine max.) was “did not damage”. The “herbicidal action by the post-emergence method” value in series [2] is “very good herbicidal action”.

As for `COc1nc(NC(=O)[N-]S(=O)(=O)c2ncccc2C2=NOCCO2)nc(N(C)C)n1.[Na+]` [I-60], the “herbicidal action in the pre-emergence method” value in series [1] is recorded as “very good herbicidal action”. Also, the “damage to crops of leguminous plants” value in the series with soybeans (Glycine max.) is “did not damage”. In addition, in [2], the “herbicidal action by the post-emergence method” value was “very good herbicidal action”.

With `COc1cc(N(C)C)nc(NC(=O)NS(=O)(=O)c2ncccc2C2=NOCCO2)n1` [I-8], in series [1], the “herbicidal action in the pre-emergence method” value is reported as “very good herbicidal action”. The “damage to crops of leguminous plants” value in the series on soybeans (Glycine max.) is “did not damage”. Also, in series [2], the “herbicidal action by the post-emergence method” value is given as “very good herbicidal action”.

Turning to `Cc1cc(Cl)nc(NC(=O)NS(=O)(=O)c2ncccc2C2=NOCCO2)n1` [I-29], the “herbicidal action in the pre-emergence method” value in [1] is recorded as “very good herbicidal action”. The “damage to crops of leguminous plants” value with soybeans (Glycine max.) is recorded as “did not damage”. Further, in [2], the “herbicidal action by the post-emergence method” value is “very good herbicidal action”.

Regarding `CN(C)c1nc(NC(=O)NS(=O)(=O)c2ncccc2C2=NOCCO2)nc(OCC(F)(F)F)n1` [I-142], the “herbicidal action in the pre-emergence method” value in series [1] was “very good herbicidal action”. Also, in the series on soybeans (Glycine max.), the “damage to crops of leguminous plants” value is “did not damage”. Further, the “herbicidal action by the post-emergence method” value in [2] is reported as “very good herbicidal action”.

For `CCOc1cc(Cl)nc(NC(=O)[N-]S(=O)(=O)c2ncccc2C2=NOCCO2)n1.[Na+]` [I-22], the “herbicidal action in the pre-emergence method” value in series [1] is “very good herbicidal action”. In addition, the “damage to crops of leguminous plants” value with soybeans (Glycine max.) is “did not damage”. Besides, the “herbicidal action by the post-emergence method” value in series [2] was “very good herbicidal action”.

Take `CCOc1cc(OCC)nc(NC(=O)[N-]S(=O)(=O)c2ncccc2C2=NOCCO2)n1.[Na+]` [I-14]: the “herbicidal action in the pre-emergence method” value in series [1] is given as “very good herbicidal action”. Besides, the “damage to crops of leguminous plants” value in the series with soybeans (Glycine max.) is “did not damage”. In addition, the “herbicidal action by the post-emergence method” value in series [2] was “very good herbicidal action”.
